Measurements published in patent US20250296959A1, “B7-H3 TARGETING PEPTIDES AND CONSTRUCTS THEREOF” (Mariana Oncology Inc., priority 2024, published 2025).
Positions of bridges follow the written chain, without caps; N, C: chain ends. Non-standard residues stand in square brackets, D forms with d. Residues, ends and D or L forms follow the SMILES beside them. *: point of attachment. DOTA = O=C(O)CN1CCN(CC(=O)O)CCN(CC(=O)*)CCN(CC(=O)O)CC1; Phe(4-COOH) = N[C@@H](Cc1ccc(C(=O)O)cc1)C(=O)O; Trp(5-F) = N[C@@H](Cc1c[nH]c2ccc(F)cc12)C(=O)O; Trp(1-Me) = Cn1cc(C[C@H](N)C(=O)O)c2ccccc21; AEF = NCCOc1ccc(C[C@H](N)C(=O)O)cc1; Val(3-OH) = CC(C)(O)[C@H](N)C(=O)O; Chg = N[C@H](C(=O)O)C1CCCCC1; Tle = CC(C)(C)[C@H](N)C(=O)O; hLeu = CC(C)CC[C@H](N)C(=O)O; NMeS = CN[C@@H](CO)C(=O)O; αMeS = C[C@](N)(CO)C(=O)O; Orn = NCCC[C@H](N)C(=O)O; Sar = CNCC(=O)O

Target: T1, human 4lg B7-H3 (Homo sapiens, UniProt Q5ZPR3)
T1 sequence (Q5ZPR3 29-534): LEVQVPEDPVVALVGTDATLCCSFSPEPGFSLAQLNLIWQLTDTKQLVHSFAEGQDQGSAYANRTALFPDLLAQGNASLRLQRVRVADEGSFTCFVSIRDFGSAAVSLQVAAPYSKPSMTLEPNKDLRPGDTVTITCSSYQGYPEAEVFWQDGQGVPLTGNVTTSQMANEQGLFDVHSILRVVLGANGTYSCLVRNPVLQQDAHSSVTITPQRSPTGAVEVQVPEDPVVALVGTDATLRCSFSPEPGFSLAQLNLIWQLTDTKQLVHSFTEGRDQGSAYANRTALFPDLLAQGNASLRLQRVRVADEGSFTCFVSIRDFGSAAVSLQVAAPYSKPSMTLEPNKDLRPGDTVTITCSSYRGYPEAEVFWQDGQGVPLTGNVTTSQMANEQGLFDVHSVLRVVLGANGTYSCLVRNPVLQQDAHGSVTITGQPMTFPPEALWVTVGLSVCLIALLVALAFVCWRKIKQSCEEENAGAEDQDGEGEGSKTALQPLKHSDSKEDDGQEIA
Test: Affinity determination by surface plasmon resonance (SPR) to 4Ig B7-H3
Details: 4Ig B7-H3

[1] = SPR KD—25° C., 25° C. flow cell temperature

Compound | Kd (SPR KD—37° C., 37° C. flow cell temperature) | Kd [1]
CC(=O)N[C@@H](CCC(C)C)C(=O)N[C@@H](Cc1ccc(O)cc1)C(=O)N[C@H]1CSSC[C@@H](C(=O)N[C@@H](Cc2c[nH]c3ccccc23)C(=O)N[C@@H](Cc2ccccc2)C(=O)N[C@H](C(=O)N[C@H](C)C(N)=O)[C@@H](C)O)NC(=O)[C@H](Cc2ccc(O)cc2)NC(=O)[C@H](C(C)C)NC(=O)[C@H](CC(=O)O)NC(=O)[C@H](Cc2ccc(OCCNC(=O)CN3CCN(CC(=O)O)CCN(CC(=O)O)CCN(CC(=O)O)CC3)cc2)NC(=O)[C@H](CCCCN)NC(=O)CNC(=O)[C@H](C(C)C)NC1=O [compound 136, Ac-hLeu-Y-C-V-G-K-AEF(DOTA)-D-V-Y-C-W-F-Thr-dAla-CONH2] (Ac-[hLeu]YCVGK[AEF](DOTA)DVYCWFT[dA]-NH2; disulfide 3-11) | < 1 nM | 
CC(=O)N[C@@H](CCC(C)C)C(=O)N[C@@H](Cc1ccc(O)cc1)C(=O)N[C@H]1CSSC[C@@H](C(=O)N[C@@H](Cc2c[nH]c3ccccc23)C(=O)N[C@@H](Cc2ccccc2)C(=O)N[C@H](C(=O)N[C@H](CCCCNC(=O)CN2CCN(CC(=O)O)CCN(CC(=O)O)CCN(CC(=O)O)CC2)C(N)=O)[C@@H](C)O)NC(=O)[C@H](Cc2ccc(O)cc2)NC(=O)[C@H](C2CCCCC2)NC(=O)[C@H](CC(=O)O)NC(=O)[C@H](Cc2ccc(O)cc2)NC(=O)[C@H](CCCN)NC(=O)CNC(=O)[C@H](C(C)(C)C)NC1=O [compound 138, Ac-hLeu-Y-C-Tbg-G-Orn-Y-D-Chg-Y-C-W-F-Thr-dLys(DOTA)-CONH2] (Ac-[hLeu]YC[Tle]G[Orn]YD[Chg]YCWFT[dK](DOTA)-NH2; disulfide 3-11) |  | 1 to 10 nM
CC(=O)N[C@@H](CCC(C)C)C(=O)N[C@@H](Cc1ccc(O)cc1)C(=O)N[C@H]1CSSC[C@@H](C(=O)N[C@@H](Cc2c[nH]c3ccccc23)C(=O)N[C@@H](Cc2ccccc2)C(=O)N[C@H](C(=O)N[C@H](CCCCNC(=O)CN2CCN(CC(=O)O)CCN(CC(=O)O)CCN(CC(=O)O)CC2)C(N)=O)[C@@H](C)O)NC(=O)[C@H](Cc2ccc(O)cc2)NC(=O)[C@H](C(C)C)NC(=O)[C@H](CC(=O)O)NC(=O)[C@H](Cc2ccc(C(=O)O)cc2)NC(=O)[C@H](CCCCN)NC(=O)CNC(=O)[C@H](C(C)(C)C)NC1=O [compound 139, Ac-hLeu-Y-C-Tbg-G-K-4COOHPhe-D-V-Y-C-W-F-Thr-dLys(DOTA)-CONH2] (Ac-[hLeu]YC[Tle]GK[Phe(4-COOH)]DVYCWFT[dK](DOTA)-NH2; disulfide 3-11) |  | < 1 nM
CC(=O)N[C@@H](CCC(C)C)C(=O)N[C@@H](Cc1ccc(O)cc1)C(=O)N[C@H]1CSSC[C@@H](C(=O)N[C@@H](Cc2c[nH]c3ccccc23)C(=O)N[C@@H](Cc2ccccc2)C(=O)N[C@H](C(=O)N[C@H](CCCCNC(=O)CN2CCN(CC(=O)O)CCN(CC(=O)O)CCN(CC(=O)O)CC2)C(N)=O)[C@@H](C)O)NC(=O)[C@H](Cc2ccc(O)cc2)NC(=O)[C@H](C(C)C)NC(=O)[C@H](CC(=O)O)NC(=O)[C@H](Cc2ccc(C(=O)O)cc2)NC(=O)[C@H](CCCCN)NC(=O)CN(C)C(=O)[C@H](C(C)(C)C)NC1=O [compound 140, Ac-hLeu-Y-C-Tbg-Sar-K-4COOHPhe-D-V-Y-C-W-F-Thr-dLys(DOTA)-CONH2] (Ac-[hLeu]YC[Tle][Sar]K[Phe(4-COOH)]DVYCWFT[dK](DOTA)-NH2; disulfide 3-11) |  | 1 to 10 nM
CC(=O)N[C@@H](CCC(C)C)C(=O)N[C@@H](Cc1ccc(O)cc1)C(=O)N[C@H]1CSSC[C@@H](C(=O)N[C@@H](Cc2c[nH]c3ccccc23)C(=O)N[C@@H](Cc2ccccc2)C(=O)N2CCC[C@H]2C(=O)N[C@@H](CCCCNC(=O)CN2CCN(CC(=O)O)CCN(CC(=O)O)CCN(CC(=O)O)CC2)C(N)=O)NC(=O)[C@H](Cc2ccc(O)cc2)NC(=O)[C@H](C(C)C)NC(=O)[C@H](CC(=O)O)NC(=O)[C@H](Cc2ccc(O)cc2)NC(=O)[C@H](CCCCN)NC(=O)CNC(=O)[C@H](C(C)C)NC1=O [compound 141, Ac-hLeu-Y-C-V-G-K-Y-D-V-Y-C-W-F-Pro-dLys(DOTA)-CONH2] (Ac-[hLeu]YCVGKYDVYCWFPK(DOTA)-NH2; disulfide 3-11) |  | 1 to 10 nM
CC(=O)N[C@@H](CCC(C)C)C(=O)N[C@@H](Cc1ccc(O)cc1)C(=O)N[C@H]1CSSC[C@@H](C(=O)N[C@@H](Cc2c[nH]c3ccccc23)C(=O)N[C@@H](Cc2ccccc2)C(=O)N[C@H](C(N)=O)[C@@H](C)O)NC(=O)[C@H](Cc2ccc(O)cc2)NC(=O)[C@H](CCCCNC(=O)CN2CCN(CC(=O)O)CCN(CC(=O)O)CCN(CC(=O)O)CC2)NC(=O)[C@H](CC(=O)O)NC(=O)[C@H](Cc2ccc(O)cc2)NC(=O)[C@H](CCCCN)NC(=O)CNC(=O)[C@H](C(C)C)NC1=O [compound 143, Ac-hLeu-Y-C-V-G-K-Y-D-Lys(DOTA)-Y-C-W-F-Thr-CONH2] (Ac-[hLeu]YCVGKYDK(DOTA)YCWFT-NH2; disulfide 3-11) |  | 10 to 100 nM
CC(=O)N[C@@H](CCC(C)C)C(=O)N[C@@H](Cc1ccc(O)cc1)C(=O)N[C@H]1CSSC[C@@H](C(=O)N[C@@H](Cc2c[nH]c3ccccc23)C(=O)N[C@@H](Cc2ccccc2)C(=O)N[C@H](C(N)=O)[C@@H](C)O)NC(=O)[C@H](Cc2ccc(O)cc2)NC(=O)[C@H](C(C)C)NC(=O)[C@H](CC(=O)O)NC(=O)[C@H](CCCCNC(=O)CN2CCN(CC(=O)O)CCN(CC(=O)O)CCN(CC(=O)O)CC2)NC(=O)[C@H](CCCCN)NC(=O)CNC(=O)[C@H](C(C)C)NC1=O [compound 144, Ac-hLeu-Y-C-V-G-K-Lys(DOTA)-D-V-Y-C-W-F-Thr-CONH2] (Ac-[hLeu]YCVGKK(DOTA)DVYCWFT-NH2; disulfide 3-11) |  | 10 to 100 nM
CC(=O)N[C@@H](CCC(C)C)C(=O)N[C@@H](Cc1ccc(O)cc1)C(=O)N[C@H]1CSSC[C@@H](C(=O)N[C@@H](Cc2c[nH]c3ccccc23)C(=O)N[C@@H](Cc2ccccc2)C(=O)N[C@H](C(N)=O)[C@@H](C)O)NC(=O)[C@H](Cc2ccc(O)cc2)NC(=O)[C@H](C(C)C)NC(=O)[C@H](CC(=O)O)NC(=O)[C@H](Cc2ccc(O)cc2)NC(=O)[C@H](CCCCNC(=O)CN2CCN(CC(=O)O)CCN(CC(=O)O)CCN(CC(=O)O)CC2)NC(=O)CNC(=O)[C@H](C(C)C)NC1=O [compound 145, Ac-hLeu-Y-C-V-G-Lys(DOTA)-Y-D-V-Y-C-W-F-Thr-CONH2] (Ac-[hLeu]YCVGK(DOTA)YDVYCWFT-NH2; disulfide 3-11) |  | 1 to 10 nM
CC(=O)N[C@@H](CCC(C)C)C(=O)N[C@@H](Cc1ccc(O)cc1)C(=O)N[C@H]1CSSC[C@@H](C(=O)N[C@@H](Cc2c[nH]c3ccc(F)cc23)C(=O)N[C@@H](Cc2ccccc2)C(=O)N[C@@](C)(CO)C(=O)N[C@H](CCCCNC(=O)CN2CCN(CC(=O)O)CCN(CC(=O)O)CCN(CC(=O)O)CC2)C(N)=O)NC(=O)[C@H](Cc2ccc(O)cc2)NC(=O)[C@H](C(C)C)NC(=O)[C@H](CC(=O)O)NC(=O)[C@H](Cc2ccc(O)cc2)NC(=O)[C@H](CCCCN)NC(=O)CNC(=O)[C@H](C(C)C)NC1=O [compound 147, Ac-hLeu-Y-C-V-G-K-Y-D-V-Y-C-5FW-F-aMeSer-dLys(DOTA)-CONH2] (Ac-[hLeu]YCVGKYDVYC[Trp(5-F)]F[αMeS][dK](DOTA)-NH2; disulfide 3-11) |  | 1 to 10 nM
CC(=O)N[C@@H](CCC(C)C)C(=O)N[C@@H](Cc1ccc(O)cc1)C(=O)N[C@H]1CSSC[C@@H](C(=O)N[C@@H](Cc2c[nH]c3ccc(F)cc23)C(=O)N[C@@H](Cc2ccccc2)C(=O)N(C)[C@@H](CO)C(=O)N[C@H](CCCCNC(=O)CN2CCN(CC(=O)O)CCN(CC(=O)O)CCN(CC(=O)O)CC2)C(N)=O)NC(=O)[C@H](Cc2ccc(O)cc2)NC(=O)[C@H](C(C)C)NC(=O)[C@H](CC(=O)O)NC(=O)[C@H](Cc2ccc(O)cc2)NC(=O)[C@H](CCCCN)NC(=O)CNC(=O)[C@H](C(C)C)NC1=O [compound 148, Ac-hLeu-Y-C-V-G-K-Y-D-V-Y-C-5FW-F-NMeSer-dLys(DOTA)-CONH2] (Ac-[hLeu]YCVGKYDVYC[Trp(5-F)]F[NMeS][dK](DOTA)-NH2; disulfide 3-11) |  | < 1 nM
CC(=O)N[C@@H](CCC(C)C)C(=O)N[C@@H](Cc1ccc(O)cc1)C(=O)N[C@H]1CSSC[C@@H](C(=O)N[C@@H](Cc2c[nH]c3ccccc23)C(=O)N[C@@H](Cc2ccccc2)C(=O)N[C@H](C(=O)N[C@H](CCCCNC(=O)CN2CCN(CC(=O)O)CCN(CC(=O)O)CCN(CC(=O)O)CC2)C(N)=O)C(C)(C)O)NC(=O)[C@H](Cc2ccc(O)cc2)NC(=O)[C@H](C(C)C)NC(=O)[C@H](CC(=O)O)NC(=O)[C@H](Cc2ccc(O)cc2)NC(=O)[C@H](CCCCN)NC(=O)CNC(=O)[C@H](C(C)C)NC1=O [compound 149, Ac-hLeu-Y-C-V-G-K-Y-D-V-Y-C-W-F-hydroxyVal-dLys(DOTA)-CONH2] (Ac-[hLeu]YCVGKYDVYCWF[Val(3-OH)][dK](DOTA)-NH2; disulfide 3-11) |  | < 1 nM
CC(=O)N[C@@H](CCC(C)C)C(=O)N[C@@H](Cc1ccc(O)cc1)C(=O)N[C@H]1CSSC[C@@H](C(=O)N[C@@H](Cc2cn(C)c3ccccc23)C(=O)N[C@@H](Cc2ccccc2)C(=O)N[C@H](C(=O)N[C@H](CCCCNC(=O)CN2CCN(CC(=O)O)CCN(CC(=O)O)CCN(CC(=O)O)CC2)C(N)=O)[C@@H](C)O)NC(=O)[C@H](Cc2ccc(O)cc2)NC(=O)[C@H](C(C)C)NC(=O)[C@H](CC(=O)O)NC(=O)[C@H](Cc2ccc(O)cc2)NC(=O)[C@H](CCCCN)NC(=O)CNC(=O)[C@H](C(C)C)NC1=O [compound 150, Ac-hLeu-Y-C-V-G-K-Y-D-V-Y-C-Trp(Me)-F-Thr-dLys(DOTA)-CONH2] (Ac-[hLeu]YCVGKYDVYC[Trp(1-Me)]FT[dK](DOTA)-NH2; disulfide 3-11) |  | < 1 nM
